{
  "source": "BindingDB's records for doi:10.1111/j.1749-6632.1998.tb10185.x",
  "about": "(Albany Medical College, 1998)",
  "note": "Several values for one entry are separate records, joined by “and”; a condition that tells them apart may be missing. Identical values can stand only once.",
  "data": [
    {"target": "T1, 5-hydroxytryptamine receptor 2C (Rattus norvegicus, UniProt P08909)", "T1 sequence (P08909 whole entry)": "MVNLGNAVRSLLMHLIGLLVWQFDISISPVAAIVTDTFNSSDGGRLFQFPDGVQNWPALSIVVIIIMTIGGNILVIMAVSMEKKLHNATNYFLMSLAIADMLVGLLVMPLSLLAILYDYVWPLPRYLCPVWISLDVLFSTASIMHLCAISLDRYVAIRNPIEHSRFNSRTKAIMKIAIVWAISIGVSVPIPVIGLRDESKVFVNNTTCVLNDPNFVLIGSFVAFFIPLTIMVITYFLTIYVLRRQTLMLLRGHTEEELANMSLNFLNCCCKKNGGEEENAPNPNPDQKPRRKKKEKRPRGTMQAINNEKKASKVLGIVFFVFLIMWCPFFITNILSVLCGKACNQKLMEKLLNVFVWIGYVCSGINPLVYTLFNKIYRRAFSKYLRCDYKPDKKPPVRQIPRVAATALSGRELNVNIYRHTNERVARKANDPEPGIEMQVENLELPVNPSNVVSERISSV", "values": [
      {"smiles": "NCCc1c[nH]c2ccc(C(N)=O)cc12", "note": "[[3H]-5-carboxamidotryptamine]", "Ki": "5810 nM"},
      {"smiles": "c1ccc2nc(N3CCNCC3)ccc2c1", "note": "[2-Piperazin-1-yl-quinoline (Quipazine)]", "Ki": "160 nM and 1340 nM"},
      {"smiles": "O=C(c1ccc(F)cc1)C1CCN(CCn2c(=O)[nH]c3ccccc3c2=O)CC1", "note": "[3-(2-{4-[(4-fluorophenyl)carbonyl]piperidin-1-yl}ethyl)-1,2,3,4-tetrahydroquinazoline-2,4-dione]", "Ki": "103 nM and 94 nM"},
      {"smiles": "CC[C@@H](CO)NC(=O)[C@@H]1C=C2c3cccc4c3c(cn4C)C[C@H]2N(C)C1", "Ki": "0.8 nM and 1 nM"}
    ]}
  ]
}
